Test results: patent US8178552B2, “7-Azaindole derivatives and their use in the inhibition of c-Jun N-terminal kinase” (Eisai R&D Management Co., Ltd., priority 2008, dated 2012)

target: JNK3 (Homo sapiens, UniProt P53779); experiment: JNK3 SPA assay; type: biochemical; details: 3.33 μM ATP, GST-c-Jun substrate; read-out: IC50 against JNK3
Method: JNK1, JNK2, JNK3—SPA Assay
JNK1, JNK2, JNK3—SPA Assay • 1. Compound is dissolved in DMSO to a convenient concentration and this is diluted in 10% DMSO to a five times concentrate of the desired starting concentration (frequently 1:100). • 2. 10 μl of 500 mM EDTA is added to alternative wells of the Opti-plate row, which will receive kinase reaction plus DMSO. This creates the negative control. • 3. For the JNK2 and JNK3 assay, compounds are prepared in six 2-fold dilutions with water and each concentration is tested in duplicate. For the JNK1 assay compounds are prepared in four 5-fold dilutions with water which are tested in triplicate. Controls are treated identically. • 4. 20 μl per well of each compound concentration is transferred to an Opti-plate, in duplicate. • 5. 30 μl (JNK2/3 SPA) or 50 μl (JNK1 SPA) of substrate solution (25 mM HEPES pH 7.5, 10 mM magnesium acetate with 3.33 μM ATP (JNK2/3) or 2 μM ATP (JNK1), approximately 7.5 kBq [γ-^33P] ATP, GST-c-Jun, in water) is added to each well. • 6. 50 μl (JNK2/3 SPA) or 30 μl (JNK1 SPA) of kinase solution (JNK in 25 mM HEPES pH 7.5, 10 mM Mg Acetate) is added to each well.
• 7. The plate is incubated for 30 minutes at room temperature. • 8. 100 μl of bead/stop solution is added to each well (5 mg/ml glutathione-PVT-SPA beads, 40 mM ATP in PBS). • 9. Plates are sealed and incubated for 30 minutes at room temperature, centrifuged for 10 minutes at 2500 g and counted. • 10. The IC50 values are calculated as the concentration of the compound being tested at which the phosphorylation of c-Jun is decreased to 50% of the control value.

Chain of JNK3 (P53779 whole entry, species assumed): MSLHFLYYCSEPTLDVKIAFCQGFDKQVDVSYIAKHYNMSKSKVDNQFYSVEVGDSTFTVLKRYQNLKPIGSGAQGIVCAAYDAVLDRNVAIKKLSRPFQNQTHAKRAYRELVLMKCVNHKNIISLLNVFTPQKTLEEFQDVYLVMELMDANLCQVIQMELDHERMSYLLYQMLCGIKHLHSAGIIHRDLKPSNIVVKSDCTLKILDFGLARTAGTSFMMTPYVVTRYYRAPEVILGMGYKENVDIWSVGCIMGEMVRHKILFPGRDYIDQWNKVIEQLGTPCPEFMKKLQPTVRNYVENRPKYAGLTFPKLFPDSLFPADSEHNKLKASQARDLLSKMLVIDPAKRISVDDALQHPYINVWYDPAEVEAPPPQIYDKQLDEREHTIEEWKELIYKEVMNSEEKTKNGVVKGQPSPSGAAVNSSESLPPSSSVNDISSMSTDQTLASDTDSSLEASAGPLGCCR

IC50 [nM] | Structure (SMILES)
295 | CCCN(CCOC)[C@H]1CC[C@@H](c2cnc3[nH]cc(-c4cnn(C)c4)c3c2)CC1 [Compound I-122, (1s,4s)-N-(2-methoxyethyl)-4-(3-(1-methyl-1H-pyrazol-4-yl)-1H-pyrrolo[2,3-b]pyridin-5-yl)-N-propylcyclohexanamine]
> 1000 | Cn1cc(-c2c[nH]c3ncc(C4=CC5CC(O)CC(C4)C5)cc23)cn1 (centres unmarked) [Compound I-147, 7-(3-(1-methyl-1H-pyrazol-4-yl)-1H-pyrrolo[2,3-b]pyridin-5-yl)bicyclo[3.3.1]non-6-en-3-ol]
117 | c1n[nH]cc1-c1c[nH]c2ncc([C@H]3CC[C@H](N4CCOCC4)CC3)cc12 [Compound I-79, 4-((1r,4r)-4-(3-(1H-pyrazol-4-yl)-1H-pyrrolo[2,3-b]pyridin-5-yl)cyclohexyl)morpholine]
692 | Cn1cc(-c2c[nH]c3ncc([C@H]4CC[C@@H](NCCO)CC4)cc23)cn1 [Compound I-130, 2-((1s,4s)-4-(3-(1-methyl-1H-pyrazol-4-yl)-1H-pyrrolo[2,3-b]pyridin-5-yl)cyclohexylamino)ethanol]
> 2000 | Cn1cc(-c2c[nH]c3ncc([C@]4(F)CC[C@@H](N5CCOCC5)CC4)cc23)cn1 [Compound I-162, 4-((1s,4s)-4-fluoro-4-(3-(1-methyl-1H-pyrazol-4-yl)-1H-pyrrolo[2,3-b]pyridin-5-yl)cyclohexyl)morpholine]
132 | Cn1cc(-c2c[nH]c3ncc(C4CCCC4)cc23)cn1 [Compound I-11, 5-cyclopentyl-3-(1-methyl-1H-pyrazol-4-yl)-1H-pyrrolo[2,3-b]pyridine]
832 | Cn1cc(-c2c[nH]c3ncc(C4=CC5CC(O)CC(C4)C5)cc23)cn1 (centres unmarked) [Compound I-146, 7-(3-(1-methyl-1H-pyrazol-4-yl)-1H-pyrrolo[2,3-b]pyridin-5-yl)bicyclo[3.3.1]non-6-en-3-ol]
251 | CCN(CC)C1CCC(c2cnc3[nH]cc(-c4cnn(C)c4)c3c2)CC1 (centres unmarked) [Compound I-52, N,N-diethyl-4-(3-(1-methyl-1H-pyrazol-4-yl)-1H-pyrrolo[2,3-b]pyridin-5-yl)cyclohexanamine]
71 | CN(C)C1CCC(c2cnc3[nH]cc(-c4cnn(CCN5CCOCC5)c4)c3c2)CC1 (mixture of isomers) [Compound I-56, N,N-dimethyl-4-(3-(1-(2-morpholinoethyl)-1H-pyrazol-4-yl)-1H-pyrrolo[2,3-b]pyridin-5-yl)cyclohexanamine]
1480 | CO[C@]1(c2cnc3[nH]cc(-c4cnn(C)c4)c3c2)CC[C@H](N2CCOCC2)CC1 [Compound I-163, 4-((1s,4s)-4-methoxy-4-(3-(1-methyl-1H-pyrazol-4-yl)-1H-pyrrolo[2,3-b]pyridin-5-yl)cyclohexyl)morpholine]
174 | Cn1cc(-c2c[nH]c3ncc([C@H]4CC[C@H](N5CC[C@@H](F)C5)CC4)cc23)cn1 [Compound I-54, 5-((1R,4r)-4-((R)-3-fluoropyrrolidin-1-yl)cyclohexyl)-3-(1-methyl-1H-pyrazol-4-yl)-1H-pyrrolo[2,3-b]pyridine]
355 | CCN(C)[C@H]1CC[C@@H](c2cnc3[nH]cc(-c4cnn(C)c4)c3c2)CC1 [Compound I-110, (1s,4s)-N-ethyl-N-methyl-4-(3-(1-methyl-1H-pyrazol-4-yl)-1H-pyrrolo[2,3-b]pyridin-5-yl)cyclohexanamine]
25 | CCC1CCC(c2cnc3[nH]cc(-c4cnn(C)c4)c3c2)CC1 (mixture of isomers) [Compound I-22, 5-(4-ethylcyclohexyl)-3-(1-methyl-1H-pyrazol-4-yl)-1H-pyrrolo[2,3-b]pyridine]
204 | CCOCCN(CC)[C@H]1CC[C@@H](c2cnc3[nH]cc(-c4cnn(C)c4)c3c2)CC1 [Compound I-108, (1s,4s)-N-(2-ethoxyethyl)-N-ethyl-4-(3-(1-methyl-1H-pyrazol-4-yl)-1H-pyrrolo[2,3-b]pyridin-5-yl)cyclohexanamine]
182 | Cn1cc(-c2c[nH]c3ncc([C@H]4CC[C@@H](N5CC[C@@H](F)C5)CC4)cc23)cn1 [Compound I-53, 5-((1S,4s)-4-((R)-3-fluoropyrrolidin-1-yl)cyclohexyl)-3-(1-methyl-1H-pyrazol-4-yl)-1H-pyrrolo[2,3-b]pyridine]
74 | Cn1cc(-c2c[nH]c3ncc(C4CCC(CN5CCOCC5)CC4)cc23)cn1 (mixture of isomers) [Compound I-73, 3-(1-Methyl-1H-pyrazol-4-yl)-5-(4-morpholin-4-ylmethyl-cyclohexyl)-1H-pyrrolo[2,3-b]pyridine]

IC50 [nM] | Structure (SMILES)
89 | Cn1cc(-c2c[nH]c3ncc(C4=CCC(N5CCOCC5)CC4)cc23)cn1 (centres unmarked) [Compound I-75, 3-(1-Methyl-1H-pyrazol-4-yl)-5-(4-morpholin-4-yl-cyclohex-1-enyl)-1H-pyrrolo[2,3-b]pyridine]
151 | Cn1cc(-c2c[nH]c3ncc([C@H]4CC[C@@H](N5CCCCC5)CC4)cc23)cn1 [Compound I-46, 3-(1-methyl-1H-pyrazol-4-yl)-5-((1s,4s)-4-(piperidin-1-yl)cyclohexyl)-1H-pyrrolo[2,3-b]pyridine]
302 | CCN(C)[C@H]1CC[C@H](c2cnc3[nH]cc(-c4cnn(C)c4)c3c2)CC1 [Compound I-109, (1r,4r)-N-ethyl-N-methyl-4-(3-(1-methyl-1H-pyrazol-4-yl)-1H-pyrrolo[2,3-b]pyridin-5-yl)cyclohexanamine]
320 | CC(C)N[C@H]1CC[C@H](c2cnc3[nH]cc(-c4cnn(C)c4)c3c2)CC1 [Compound I-105, (1r,4r)-N-isopropyl-4-(3-(1-methyl-1H-pyrazol-4-yl)-1H-pyrrolo[2,3-b]pyridin-5-yl)cyclohexanamine]
91 | Cn1cc(-c2c[nH]c3ncc(C4CCC(c5ccccc5)CC4)cc23)cn1 (mixture of isomers) [Compound I-35, 3-(1-methyl-1H-pyrazol-4-yl)-5-(4-phenylcyclohexyl)-1H-pyrrolo[2,3-b]pyridine]
5500 | Cn1cc(-c2c[nH]c3ncc(C4=CC(C)(C)CC(C)(C)C4)cc23)cn1 [Compound I-28, 3-(1-methyl-1H-pyrazol-4-yl)-5-(3,3,5,5-tetramethylcyclohex-1-enyl)-1H-pyrrolo[2,3-b]pyridine]
224 | Cn1cc(-c2c[nH]c3ncc(C4=CCC5(CC4)OCCO5)cc23)cn1 [Compound I-14, 5-(1,4-Dioxa-spiro[4.5]dec-7-en-8-yl)-3-(1-methyl-1H-pyrazol-4-yl)-1H-pyrrolo[2,3-b]pyridine]
288 | Cn1cc(-c2c[nH]c3ncc(C4CCC(C)(C)CC4)cc23)cn1 [Compound I-18, 5-(4,4-dimethylcyclohexyl)-3-(1-methyl-1H-pyrazol-4-yl)-1H-pyrrolo[2,3-b]pyridine]
288 | CN1C2CC3CC(C2)C(O)C1(c1cnc2[nH]cc(-c4cnn(C)c4)c2c1)C3 (centres unmarked) [Compound I-153]
229 | Cn1cc(-c2c[nH]c3ncc(C4CCC(=O)CC4)cc23)cn1 [Compound I-20, 4-[3-(1-Methyl-1H-pyrazol-4-yl)-1H-pyrrolo[2,3-b]pyridin-5-yl]-cyclohexanone]
178 | CN1CCN([C@H]2CC[C@@H](c3cnc4[nH]cc(-c5cnn(C(F)(F)F)c5)c4c3)CC2)CC1 [Compound I-67, 5-((1s,4s)-4-(4-methylpiperazin-1-yl)cyclohexyl)-3-(1-(trifluoromethyl)-1H-pyrazol-4-yl)-1H-pyrrolo[2,3-b]pyridine]
219 | CN1CCN([C@H]2CC[C@H](c3cnc4[nH]cc(-c5cnn(C(F)(F)F)c5)c4c3)CC2)CC1 [Compound I-66, 5-((1r,4r)-4-(4-methylpiperazin-1-yl)cyclohexyl)-3-(1-(trifluoromethyl)-1H-pyrazol-4-yl)-1H-pyrrolo[2,3-b]pyridine]
281 | CCCN(CCO)[C@H]1CC[C@@H](c2cnc3[nH]cc(-c4cnn(C)c4)c3c2)CC1 [Compound I-126, 2-(((1s,4s)-4-(3-(1-methyl-1H-pyrazol-4-yl)-1H-pyrrolo[2,3-b]pyridin-5-yl)cyclohexyl)(propyl)amino)ethanol]
> 500 | CN(C)[C@H]1CC[C@@H](c2cnc3[nH]cc(-c4cnn(CCN5CCOCC5)c4)c3c2)CC1 [Compound I-59, (1s,4s)-N,N-dimethyl-4-(3-(1-(2-morpholinoethyl)-1H-pyrazol-4-yl)-1H-pyrrolo[2,3-b]pyridin-5-yl)cyclohexanamine]
257 | COCCN(C)[C@H]1CC[C@@H](c2cnc3[nH]cc(-c4cnn(C)c4)c3c2)CC1 [Compound I-118, (1s,4s)-N-(2-methoxyethyl)-N-methyl-4-(3-(1-methyl-1H-pyrazol-4-yl)-1H-pyrrolo[2,3-b]pyridin-5-yl)cyclohexanamine]
1510 | Cc1c(-c2c[nH]c3ncc([C@H]4CC[C@H](N5CCOCC5)CC4)cc23)cnn1C [Compound I-95, 4-((1r,4r)-4-(3-(1,5-dimethyl-1H-pyrazol-4-yl)-1H-pyrrolo[2,3-b]pyridin-5-yl)cyclohexyl)morpholine]
